Measured values published in patent US8802597B2, “Herbicidal pyrimidines” (E I du Pont de Nemours and Company, priority 2003, dated 2014).
Like-named read-outs stand apart in the source and are kept apart here.

Experiments:
Experiment in all cases: Test C pre/postemergence
Format in all cases: in vivo
kochia (Kochia scoparia) = settings: Bassia scoparia, read-out: Plant response rating, Kochia; for pest or weed control at 250 g/ha: 250 g ai/ha; for pest or weed control at 500 g/ha: 500 g ai/ha
Method in brief: (§1)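 We sprayed seeded pots preemergence and 2–18 cm seedlings postemergence with test chemicals in a non-phytotoxic solvent mixture including surfactant. Greenhouse plants were visually compared with untreated controls at 12 to 14 days and scored 0 (no effect) to 100 (complete control).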

[1] = tested on: morningglory (Ipomoea coccinea); settings: Ipomoea; for pest or weed control at 62 g/ha: 62 g ai/ha; for pest or weed control at 125 g/ha: 125 g ai/ha; for pest or weed control at 250 g/ha: 250 g ai/ha; for pest or weed control at 500 g/ha: 500 g ai/ha
Method in brief: as §1

[2] = tested on: pigweed (Amaranthus retroflexus); settings: Amaranthus retroflexus; for pest or weed control at 62 g/ha: 62 g ai/ha; for pest or weed control at 125 g/ha: 125 g ai/ha; for pest or weed control at 250 g/ha: 250 g ai/ha; for pest or weed control at 500 g/ha: 500 g ai/ha
Method in brief: as §1

[3] = tested on: velvetleaf (Abutilon theophrasti); settings: Abutilon theophrasti; for pest or weed control at 62 g/ha: 62 g ai/ha; for pest or weed control at 125 g/ha: 125 g ai/ha; for pest or weed control at 250 g/ha: 250 g ai/ha; for pest or weed control at 500 g/ha: 500 g ai/ha
Method in brief: as §1

[4] = tested on: woolly cupgrass (Eriochloa villosa); settings: Eriochloa villosa; for pest or weed control at 62 g/ha: 62 g ai/ha; for pest or weed control at 125 g/ha: 125 g ai/ha; for pest or weed control at 250 g/ha: 250 g ai/ha; for pest or weed control at 500 g/ha: 500 g ai/ha
Method in brief: as §1

[5] = tested on: yellow nutsedge (Cyperus esculentus); settings: Cyperus; for pest or weed control at 62 g/ha: 62 g ai/ha; for pest or weed control at 125 g/ha: 125 g ai/ha; for pest or weed control at 250 g/ha: 250 g ai/ha; for pest or weed control at 500 g/ha: 500 g ai/ha
Method in brief: as §1

[6] = post-emergence, Postemergence, scale 0 to 100
[7] = pre-emergence, Preemergence, scale 0 to 100
[8] = post-emergence, Postemergence, scale 0 to 100 (0 no effect, 100 complete control), read-out: Morningglory plant response rating
[9] = post-emergence, Postemergence, scale 0 to 100, read-out: Plant response rating, Morningglory
[10] = pre-emergence, Preemergence, scale 0 to 100, read-out: Plant response rating, Morningglory
[11] = post-emergence, Postemergence, scale 0 to 100 (0 no effect, 100 complete control), read-out: Pigweed plant response rating
[12] = post-emergence, Postemergence, scale 0 to 100, read-out: Plant response rating, Pigweed
[13] = pre-emergence, Preemergence, scale 0 to 100, read-out: Plant response rating, Pigweed
[14] = post-emergence, Postemergence, scale 0 to 100 (0 no effect, 100 complete control), read-out: Velvetleaf plant response rating
[15] = post-emergence, Postemergence, scale 0 to 100, read-out: Plant response rating, Velvetleaf
[16] = pre-emergence, Preemergence, scale 0 to 100, read-out: Plant response rating, Velvetleaf
[17] = post-emergence, Postemergence, scale 0 to 100 (0 no effect, 100 complete control), read-out: Cupgrass, Woolly plant response rating
[18] = post-emergence, Postemergence, scale 0 to 100, read-out: Plant response rating, Cupgrass, Woolly
[19] = pre-emergence, Preemergence, scale 0 to 100, read-out: Plant response rating, Cupgrass, Woolly
[20] = post-emergence, Postemergence, scale 0 to 100 (0 no effect, 100 complete control), read-out: Nutsedge, Yellow plant response rating
[21] = post-emergence, Postemergence, scale 0 to 100, read-out: Plant response rating, Nutsedge, Yellow
[22] = pre-emergence, Preemergence, scale 0 to 100, read-out: Plant response rating, Nutsedge, Yellow

CCOC(=O)c1nc(C2CC2)nc(N)c1Br [Compound 1, ethyl 6-amino-5-bromo-2-cyclopropyl-4-pyrimidinecarboxylate]
pest or weed control at 250 g/ha (kochia (Kochia scoparia); [6]): 100% | pest or weed control at 500 g/ha (kochia (Kochia scoparia); [6]): 100% | pest or weed control at 62 g/ha (kochia (Kochia scoparia); pre-emergence, Preemergence, 62 g ai/ha, scale 0 to 100, 0 no effect, 100 complete control): 95% | pest or weed control at 125 g/ha (kochia (Kochia scoparia); pre-emergence, Preemergence, 125 g ai/ha, scale 0 to 100): 100% | pest or weed control at 250 g/ha (kochia (Kochia scoparia); [7]): 100% | pest or weed control at 500 g/ha (kochia (Kochia scoparia); [7]): 100% | pest or weed control at 62 g/ha [1, 8]: 100% | pest or weed control at 125 g/ha [1, 8]: 100% | pest or weed control at 250 g/ha [1, 9]: 100% | pest or weed control at 500 g/ha [1, 9]: 100% | pest or weed control at 62 g/ha ([1]; pre-emergence, Preemergence, scale 0 to 100, 0 no effect, 100 complete control, read-out: Plant response rating, Morningglory): 90% | pest or weed control at 125 g/ha [1, 10]: 100% | pest or weed control at 250 g/ha [1, 10]: 100% | pest or weed control at 500 g/ha [1, 10]: 100% | pest or weed control at 62 g/ha [2, 11]: 90% | pest or weed control at 125 g/ha [2, 11]: 100% | pest or weed control at 250 g/ha [2, 12]: 100% | pest or weed control at 500 g/ha [2, 12]: 100% | pest or weed control at 62 g/ha ([2]; pre-emergence, Preemergence, scale 0 to 100, 0 no effect, 100 complete control, read-out: Plant response rating, Pigweed): 90% | pest or weed control at 125 g/ha [2, 13]: 100% | pest or weed control at 250 g/ha [2, 13]: 100% | pest or weed control at 500 g/ha [2, 13]: 100% | pest or weed control at 62 g/ha [3, 14]: 85% | pest or weed control at 125 g/ha [3, 14]: 90% | pest or weed control at 250 g/ha [3, 15]: 100% | pest or weed control at 500 g/ha [3, 15]: 100% | pest or weed control at 62 g/ha ([3]; pre-emergence, Preemergence, scale 0 to 100, 0 no effect, 100 complete control, read-out: Plant response rating, Velvetleaf): 80% | pest or weed control at 125 g/ha [3, 16]: 90% | pest or weed control at 250 g/ha [3, 16]: 95% | pest or weed control at 500 g/ha [3, 16]: 100% | pest or weed control at 62 g/ha [4, 17]: 65% | pest or weed control at 125 g/ha [4, 17]: 80% | pest or weed control at 250 g/ha [4, 18]: 90% | pest or weed control at 500 g/ha [4, 18]: 90% | pest or weed control at 62 g/ha ([4]; pre-emergence, Preemergence, scale 0 to 100, 0 no effect, 100 complete control, read-out: Plant response rating, Cupgrass, Woolly): 0% | pest or weed control at 125 g/ha [4, 19]: 60% | pest or weed control at 250 g/ha [4, 19]: 90% | pest or weed control at 500 g/ha [4, 19]: 95% | pest or weed control at 62 g/ha [5, 20]: 0% | pest or weed control at 125 g/ha [5, 20]: 0% | pest or weed control at 250 g/ha [5, 21]: 5% | pest or weed control at 500 g/ha [5, 21]: 5% | pest or weed control at 62 g/ha ([5]; pre-emergence, Preemergence, scale 0 to 100, 0 no effect, 100 complete control, read-out: Plant response rating, Nutsedge, Yellow): 0% | pest or weed control at 125 g/ha [5, 22]: 0% | pest or weed control at 250 g/ha [5, 22]: 50% | pest or weed control at 500 g/ha [5, 22]: 50%
